In patent US11576923B2, “Composition for improving skin elasticity comprising novel ginsenoside” (AMOREPACIFIC CORPORATION, priority 2019, dated 2023):

Experiments:
Assay type in all cases: cell-based
[1] = test system: collagen biosynthesis in normal human dermal fibroblasts (NHDFs); assay: Collagen biosynthesis-promoting effect (procollagen mRNA by Q-PCR, secreted collagen protein by ELISA)
Description: Normal human dermal fibroblasts (NHDFs; ATCC) were cultured in Dulbecco's modified Eagle's medium (Sigma) supplemented with 10% fetal bovine serum (FBS; Hyclone) and 1 (w/v) % penicillin/streptomycin (Sigma) at 37° C. in a 5% CO2 incubator. For collagen synthesis, after replacing the medium with serum-free Dulbecco's modified Eagle's medium, the cells were treated with GS #10, which is a novel ginsenoside according to an exemplary embodiment of the present disclosure, and ginsenosides GS #01-GS #06 as comparative examples of the present disclosure, which were isolated from the ginseng seed extract, for 24 hours at a concentration of 10 μg/mL, respectively. Fibroblast growth factor 1 (FGF1) was used as a positive control group for inducing collagen synthesis. After recovering the cells and extracting RNA using a TRIzol™ reagent (Thermo), cDNA was synthesized using a ReverdAid 1st strand cDNA synthesis kit (Thermo). Then, the change in the amount of procollagen mRNA was observed using a gene amplifier (CFX96 thermocycler, Bio-Rad) (FIG. 11), and the amount of the collagen protein secreted to the medium was measured using a collagen ELISA kit (Abcam) (FIG. 12) […]

[2] = test system: matrix metalloproteinase-1 (MMP-1) expression in normal human dermal fibroblasts (NHDFs); assay: Collagen degradation-inhibiting effect (TNFα-induced MMP-1 mRNA by Q-PCR, secreted MMP-1 protein by ELISA)
Text: For skin elasticity to be maintained, the synthesis of collagen should be promoted and its degradation should be inhibited. Because collagen is degraded by matrix metalloproteinase-1 (MMP-1), it was investigated whether the ginseng seed-derived ginsenosides inhibit the expression of the collagen-degrading enzyme. After pretreating normal human dermal fibroblasts (NHDFs; ATCC) with GS #10, which is a novel ginsenoside according to an exemplary embodiment of the present disclosure, and ginsenosides GS #01-GS #06 as comparative examples of the present disclosure, which were isolated from the ginseng seed extract, under a serum-free condition in the same manner as in Test Example 1 for 2 hours at a concentration of 10 μg/mL, respectively, the cells were treated for 24 hours with a substance capable of inducing inflammatory response (TNFα; 10 ng/mL), which can promote the expression of MMP-1. After preparing RNA and cDNA in the same manner as in Test Example 1, the expression of MMP-1 mRNA was investigated by Q-PCR (FIG. 13), and the amount of the secreted MMP-1 protein was analyzed using a human MMP-1 ELISA kit (Abcam) (FIG. 14). […] Through this, it was confirmed that Compound 10 (GS #10), which is a novel ginsenoside of the present disclosure, can effectively improve skin elasticity by alleviating or delaying the decline in skin elasticity and the formation of wrinkles. […]

[3] = test system: SH-SY5Y cells; assay: Cytotoxicity (CCK-8 cell viability); settings: 0.1, 1, 5, 10, 20 and 50 μM, FIG. 19
Description: Cell growth in the presence of the novel ginsenoside GS #10 according to an exemplary embodiment of the present disclosure was evaluated using a cell counting kit (CCK-8) in order to exclude the possibility that the ginsenoside may affect the effect of improving skin elasticity or improving wrinkles through cytotoxic activity. The experimental method is as follows.
10 μL of a CCK-8 reagent was added to SH-SY5Y cells (Dojindo, Md., USA) in a 96-well plate and left at 37° C. for 2 hours. Then, absorbance was measured at 450 nm. Cell viability was represented as the percentage (%) of the absolute optical density of each sample relative to an untreated sample. The concentration of the novel ginsenoside GS #10 according to an exemplary embodiment of the present disclosure in the medium in which the cells were cultured was 0.1, 1, 5, 10, 20 and 50 μM, respectively.

In the case of CC1(C)C(=O)CC[C@@]2(C)C1[C@@H](O[C@H]1OC(CO)[C@H](O)C(O)C1O[C@H]1OC(CO)[C@H](O)C(O)C1O)C[C@]1(C)C2C[C@@H](O)C2C([C@]3(C)CC[C@H](C(C)(C)O)O3)CC[C@]21C (stereo partly drawn) [Compound 10, (20S,24R)-6-O-β-D-glucopyranosyl(1→2)-β-D-glucopyranoside-dammar-3-one-20,24-epoxy-6a,12b,25-triol], the “increase in the amount of collagen due to promoted collagen biosynthesis” value ([1]; NHDFs, 10 μg/mL, 24 hours, serum-free, vs control group (−), FIG. 11 and FIG. 12) is reported as “about 2 times”, the “increase of collagen synthesis” value ([1]; Test Example 3, same manner as Test Example 1, FIG. 15 and FIG. 16) is reported as ≥ 2 times and the “effect of inhibiting MMP-1 expression as compared to Compounds 1-6” value ([2]; NHDFs, 10 μg/mL pretreatment 2 hours, then TNFα 10 ng/mL 24 hours, FIG. 13 and FIG. 14) is reported as 2-3 times higher. For the same compound, the “effect of inhibiting collagen degradation as compared to the three red ginseng marker ginsenosides” value ([2]; Test Example 3, same manner as Test Example 2, FIG. 17 and FIG. 18) was “remarkably excellent effect of inhibiting collagen degradation” and the “cytotoxicity (cell viability, CCK-8)” value [3] was “did not exhibit cytotoxicity up to 50 μM”.
